The text below walks through data of paper PMC10016038, “Enhanced Endosomal Signaling and Desensitization of GLP-1R vs GIPR in Pancreatic Beta Cells” (Endocrinology, 2023).

The subject of assay [1] is cAMP response in INS-1 832/3 cells. The assay can be described thus: cAMP HTRF assay. The class given is cell-based, rat. The conditions noted are these: 100 nM, log(Emax/EC50) in Fig. 7A, n = 5. The source says: Results were expressed as basal fold increase responses and fitted to 3-parameter curves using Prism 9 (GraphPad).
Figure 7. Functional analysis of GLP-1R vs GIPR signaling in beta cells. […] Data are mean ± SEM, compared by paired t tests; *P < .05; ns, nonsignificant.
On the technique in general: Time-resolved FRET reads energy transfer from a long-lived donor to a nearby acceptor.

Assay [2] relates to SNAP-tagged human GIPR. The assay can be described thus: Colocalization with Rab5-Venus, SNAP-GIPR. The class given is cell-based. As to conditions: 100 nM GIP. The source says: To determine the intracellular destination of internalized GLP-1Rs/GIPRs more precisely, we performed concentration response bystander NanoBRET assays using C-terminal NanoLuc-fused SNAP-tagged GLP-1R vs GIPR and either KRAS-Venus (plasma membrane) or Rab5-Venus (early endosome) co-expressed transiently in INS-1 832/3 cells (Fig. 2).

In assay [3] the target is SNAP-tagged human GLP-1R (Homo sapiens, UniProt P43220). The assay can be described thus: TR-FRET receptor clustering, SNAP-GLP-1R. The class given is cell-based. As to conditions: 100 nM, 37 °C, n = 4.
The subject of assay [4] is SNAP-tagged human GIPR. The assay can be described thus: DERET internalization assay, INS-1 832/3 SNAP-GIPR cells. As to conditions: non-cognate agonist GLP-1, or both agonists combined. The class given is cell-based. The method, then: The diffusion-enhanced resonance energy transfer (DERET) assay was performed as previously described ([21]). The INS-1 832/3 SNAP-GLP-1R or SNAP-GIPR cells were labeled in suspension with Lumi4-Tb (40 nM) for 30 minutes in complete media. After washing, cells were resuspended in HBSS containing 24 µM fluorescein and dispensed into 96-well white plates. A baseline read was serially recorded over 5 minutes using a Flexstation 3 instrument at 37 °C in time-resolved fluorescence resonance energy transfer (TR-FRET) mode using the following settings: λex 340 nm, λem 520 and 620 nm, auto-cutoff, delay 400 µs, integration time 1500 µs. Ligands were then added, after which signal was repeatedly recorded for 30 minutes. Fluorescence signals were expressed ratiometrically after first subtracting signal from wells containing 24 µM fluorescein but no cells. Internalization was quantified as area under the curve (AUC) relative to individual well baseline.
Note that surface expression levels of SNAP-GLP-1R and SNAP-GIPR were similar within these 2 cell models (Supplemental Fig. 1A) ([32]).

Entries after “also recorded” stand apart in the source; their conditions may differ.

Chain of SNAP-tagged human GLP-1R (P43220 24-463): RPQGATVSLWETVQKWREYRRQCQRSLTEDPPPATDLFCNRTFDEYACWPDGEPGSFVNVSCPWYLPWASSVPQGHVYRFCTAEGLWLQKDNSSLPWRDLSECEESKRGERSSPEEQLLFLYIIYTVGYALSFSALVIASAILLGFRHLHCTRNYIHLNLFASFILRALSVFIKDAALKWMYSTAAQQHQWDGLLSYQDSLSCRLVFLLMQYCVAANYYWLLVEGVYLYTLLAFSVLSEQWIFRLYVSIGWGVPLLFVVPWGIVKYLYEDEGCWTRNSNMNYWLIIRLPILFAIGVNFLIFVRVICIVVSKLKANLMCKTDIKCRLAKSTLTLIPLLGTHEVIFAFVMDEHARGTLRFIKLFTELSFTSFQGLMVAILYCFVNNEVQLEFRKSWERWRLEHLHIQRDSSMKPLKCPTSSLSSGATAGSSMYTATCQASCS

Take GIP(1-42): the “cAMP response, GIP compared with GLP-1, INS-1 832/3” value in assay [1] is listed as “near-significant increase; also recorded: tendency toward increased”. For the same substance, in assay [2], the “Localization of the fraction of internalized GIPRs” value was “also localized to Rab5-Venus-positive endosomes” and the SNAP-GIPR localization entry is “a sizable amount of SNAP-GIPR was still present at the plasma membrane”. Moreover, the GLP-1R clustering result in assay [3] is on record as “not detectable”.

For the substance GLP-1(7-36)NH2, in assay [4], the GIPR internalization entry is given as “negligible”.
